≈ marks a conversion by molar mass, not a printed value. Like-named read-outs stand apart in the source and are kept apart here.
Legend:
Format in all cases: cell-based
[1] = test system: STAPHYLOCOCCUS AUREUS CMX 642A; experiment: In vitro antibacterial activity, MIC, BHI agar dilution; settings: S. aureus CMX 642A, unit assumed
[2] = test system: ESCHERICHIA COLI DC-2; experiment: as above; settings: E. coli DC-2, unit assumed
[3] = test system: STAPHYLOCOCCUS AUREUS A-5278; experiment: as above; settings: S. aureus A-5278, unit assumed
[4] = test system: STAPHYLOCOCCUS AUREUS CMX 553; experiment: as above; settings: S. aureus CMX 553, unit assumed
[5] = test system: M[…] ATCC 4698; experiment: as above; settings: M. luteus ATCC 4698, unit assumed
Experimental: (§1) Representative compounds of the present invention were assayed in vitro for antibacterial activity as follows: Twelve petri dishes containing successive aqueous dilutions of the test compound mixed with 10 mL of sterilized Brain Heart Infusion (BHI) agar (Difco 0418-01-5) were prepared. Each plate was inoculated with 1:100 (or 1:10 for slow-growing strains, such as Micrococcus and Streptococcus) dilutions of up to 32 different microorganisms, using a Steers replicator block. The inoculated plates were incubated at 35-37° C. for 20 to 24 hours. In addition, a control plate, using BHI agar containing no test compound, was prepared and incubated at the beginning and end of each test.
(§2) An additional plate containing a compound having known susceptibility patterns for the organisms being tested and belonging to the same antibiotic class as the test compound was also prepared and incubated as a further control, as well as to provide test-to-test comparability. Erythromycin A was used for this purpose.
(§3) After incubation, each plate was visually inspected. The minimum inhibitory concentration (MIC) was defmed as the lowest concentration of drug yielding no growth, a slight haze, or sparsely isolated colonies on the inoculum spot as compared to the growth control.

[6] = test system: M[…] ATCC 9341; experiment: as above
Experimental: as §1, §2, §3

[7] = test system: EN[…] ATCC 8043; experiment: as above
Experimental: as §1, §2, §3

[8] = test system: STR[…] 508; experiment: as above
Experimental: as §1, §2, §3

[9] = test system: PSEUDOMONAS AERUGINOSA K799/WT; experiment: as above; settings: P. aeruginosa K799/WT
[10] = test system: STAPHYLOCOCCUS AUREUS NCTC10649M; experiment: as above; settings: S. aureus NCTC10649M
[11] = test system: STAPHYLOCOCCUS AUREUS ATCC 6538P; experiment: as above; settings: S. aureus ATCC 6538P, 35-37° C., 20 to 24 hours, unit assumed
[12] = test system: PSEUDOMONAS CEPACIA 296I; experiment: as above; settings: P. cepacia 296I, unit assumed
[13] = test system: MYCOBACTERIUM SMEGMATIS ATCC 114; experiment: as above; settings: M. smegmatis ATCC 114, unit assumed
[14] = test system: STAPHYLOCOCCUS EPIDERMIDIS 3519; settings: S. epidermidis 3519; BHI agar; unit assumed
[15] = test system: STAPHYLOCOCCUS AUREUS 1775; experiment: In vitro antibacterial activity, MIC, BHI agar dilution; settings: S. aureus 1775, unit assumed
[16] = test system: STAPHYLOCOCCUS AUREUS A5177; experiment: as above; settings: S. aureus A5177, unit assumed
[17] = test system: PROVIDENCIA STUARTII CMX 640; settings: P. stuartii CMX 640; BHI agar; unit assumed
[18] = test system: PSEUDOMONAS AERUGINOSA BMH10; experiment: In vitro antibacterial activity, MIC, BHI agar dilution
[19] = test system: ENTEROBACTER AEROGENES ATCC 13048; experiment: as above
[20] = test system: ESCHERICHIA COLI JUHL; settings: E. coli JUHL, BHI agar, unit assumed
[21] = test system: PSEUDOMONAS AERUGINOSA DPHD-5263; experiment: In vitro antibacterial activity, MIC, BHI agar dilution; settings: P. aeruginosa DPHD-5263, unit assumed
[22] = test system: STREPTOCOCCUS PYOGENES 930; experiment: as above
[23] = test system: KLEBSIELLA PNEUMONIAE ATCC 8045; experiment: as above; settings: K. pneumoniae ATCC 8045, unit assumed
[24] = test system: PSEUDOMONAS AERUGINOSA 5007; experiment: as above; settings: P. aeruginosa 5007, unit assumed
[25] = test system: STREPTOCOCCUS PYOGENES EES61; experiment: as above; settings: S. pyogenes EES61, unit assumed
[26] = test system: CANDIDA ALBICANS CCH 442; experiment: as above; settings: C. albicans CCH 442, unit assumed
[27] = test system: PSEUDOMONAS AERUGINOSA DPHD-2862; experiment: as above; settings: P. aeruginosa DPHD-2862, unit assumed
[28] = test system: STREPTOCOCCUS BOVIS A-5169; experiment: as above; settings: S. bovis A-5169, unit assumed
[29] = test system: ESCHERICHIA COLI H560; experiment: as above
[30] = test system: ESCHERICHIA COLI KNK 437; settings: E. coli KNK 437; BHI agar; unit assumed
[31] = test system: PSEUDOMONAS AERUGINOSA K799/61; experiment: In vitro antibacterial activity, MIC, BHI agar dilution
[32] = test system: ESCHERICHIA COLI SS; experiment: as above; settings: E. coli SS, unit assumed
[33] = test system: STREPTOCOCCUS PYOGENES PIU 2548; experiment: as above; settings: S. pyogenes PIU 2548, unit assumed
[34] = M. luteus ATCC 9341, unit assumed
[35] = E. faecium ATCC 8043, unit assumed
[36] = S. agalactiae CMX 508, unit assumed
[37] = P. aeruginosa BMH10, unit assumed
[38] = E. aerogenes ATCC 13048, unit assumed
[39] = P. aeruginosa K799/61, unit assumed

Compound	MIC [1] [µg/mL]	MIC [2] [µg/mL]	MIC [3] [µg/mL]	MIC [4] [µg/mL]	MIC [5] [µg/mL]	MIC [6, 34] [µg/mL]	MIC [7, 35] [µg/mL]	MIC [8, 36] [µg/mL]	MIC ([9]; unit assumed) [µg/mL]	MIC ([10]; unit assumed) [µg/mL]	MIC [11] [µg/mL]	MIC [12] [µg/mL]	MIC [14] [µg/mL]	MIC [15] [µg/mL]	MIC [16] [µg/mL]	MIC [17] [µg/mL]	MIC [18, 37] [µg/mL]	MIC [19, 38] [µg/mL]	MIC [21] [µg/mL]	MIC [25] [µg/mL]	other results
CC[C@H]1OC(=O)[C@H](C)C(=O)[C@H](C)[C@@H](O[C@@H]2O[C@H](C)C[C@H](N(C)C)[C@H]2O)[C@](C)(OC)C[C@@H](C)C2=N[C@H](Cc3ccccc3)CN3C(=O)O[C@@]1(C)[C@H]3[C@H]2C [Example 3]	0.39 (≈ 0.536 µM)	> 100	> 100	0.39 (≈ 0.536 µM)	0.39 (≈ 0.536 µM)	0.1 (≈ 0.137 µM)	0.05 (≈ 0.0687 µM)	0.01 (≈ 0.0137 µM)	> 100	0.39 (≈ 0.536 µM)	0.39 (≈ 0.536 µM)	> 100	0.39 (≈ 0.536 µM)	> 100	0.39 (≈ 0.536 µM)	> 100	> 100	> 100	> 100	0.01 (≈ 0.0137 µM)	MIC [13]: > 100 µg/mL; MIC [20]: > 100 µg/mL; MIC ([22]; S. pyogenes 930, unit assumed): 100 µg/mL (≈ 137 µM); MIC [23]: > 100 µg/mL; MIC [24]: > 100 µg/mL; MIC [26]: > 100 µg/mL; MIC [27]: > 100 µg/mL; MIC [28]: 0.02 µg/mL (≈ 0.0275 µM); MIC ([29]; E. coli H560, unit assumed): > 100 µg/mL; MIC [30]: > 100 µg/mL; MIC [31, 39]: 3.1 µg/mL (≈ 4.26 µM)
CC[C@H]1OC(=O)[C@H](C)C(=O)[C@H](C)[C@@H](O[C@@H]2O[C@H](C)C[C@H](N(C)C)[C@H]2O)[C@](C)(OC)C[C@@H](C)C2=N[C@@H](Cc3ccccc3)CN3C(=O)O[C@@]1(C)[C@H]3[C@H]2C [Example 4]	0.78 (≈ 1.07 µM)	100 (≈ 137 µM)	> 100	0.78 (≈ 1.07 µM)	0.39 (≈ 0.536 µM)	0.1 (≈ 0.137 µM)	0.1 (≈ 0.137 µM)	0.005 (≈ 0.00687 µM)	> 100	0.78 (≈ 1.07 µM)	0.2 (≈ 0.275 µM)	> 100	0.78 (≈ 1.07 µM)	> 100	0.2 (≈ 0.275 µM)	> 100	> 100	100 (≈ 137 µM)	> 100	0.05 (≈ 0.0687 µM)	MIC [20]: > 100 µg/mL; MIC ([22]; S. pyogenes 930, unit assumed): > 100 µg/mL; MIC [23]: > 100 µg/mL; MIC [24]: > 100 µg/mL; MIC [26]: 100 µg/mL (≈ 137 µM); MIC [27]: > 100 µg/mL; MIC [28]: 0.02 µg/mL (≈ 0.0275 µM); MIC ([29]; E. coli H560, unit assumed): 25 µg/mL (≈ 34.3 µM); MIC [30]: > 100 µg/mL; MIC [31, 39]: 1.56 µg/mL (≈ 2.14 µM)
CCC1OC(=O)C(C)C(=O)C(C)C(OC2OC(C)CC(N(C)C)C2O)C(C)(OC)CC(C)C2=NCC(CCc3ccccc3)N3C(=O)OC1(C)C3C2C (centres unmarked) [Example 39]		100 (≈ 135 µM)		0.39 (≈ 0.526 µM)	0.2 (≈ 0.27 µM)						0.78 (≈ 1.05 µM)		0.78 (≈ 1.05 µM)		0.39 (≈ 0.526 µM)					0.01 (≈ 0.0135 µM)	MIC ([6]; M. luteus ATCC 9341, listed as Ex 39, unit assumed): 0.1 µg/mL (≈ 0.135 µM); MIC ([7]; E. faecium ATCC 8043, listed as Ex 39, unit assumed): 0.1 µg/mL (≈ 0.135 µM); MIC ([8]; S. agalactiae CMX 508, listed as Ex 39, unit assumed): 0.05 µg/mL (≈ 0.0674 µM); MIC ([9]; listed as Ex 39, unit assumed): 100 µg/mL (≈ 135 µM); MIC ([10]; listed as Ex 39, unit assumed): 0.39 µg/mL (≈ 0.526 µM); MIC [32]: 0.39 µg/mL (≈ 0.526 µM); MIC ([18]; P. aeruginosa BMH10, listed as Ex 39, unit assumed): 50 µg/mL (≈ 67.4 µM); MIC ([19]; E. aerogenes ATCC 13048, listed as Ex 39, unit assumed): > 100 µg/mL; MIC ([20]; listed as Ex 39): 100 µg/mL (≈ 135 µM); MIC ([22]; S. pyogenes 930, listed as Ex 39, unit assumed): 100 µg/mL (≈ 135 µM); MIC [33]: 0.2 µg/mL (≈ 0.27 µM); MIC ([29]; E. coli H560, listed as Ex 39, unit assumed): 25 µg/mL (≈ 33.7 µM); MIC ([31]; P. aeruginosa K799/61, listed as Ex 39, unit assumed): 1.56 µg/mL (≈ 2.1 µM)
CC[C@H]1OC(=O)[C@H](C)C(=O)[C@H](C)[C@@H](O[C@@H]2O[C@H](C)C[C@H](N(C)C)[C@H]2O)[C@](C)(OC)C[C@@H](C)C2=NC[C@H](COCc3ccc(OC)cc3)N3C(=O)O[C@@]1(C)[C@H]3[C@H]2C [Example 62]	0.2 (≈ 0.254 µM)	50 (≈ 63.5 µM)	> 100	0.2 (≈ 0.254 µM)	0.02 (≈ 0.0254 µM)	0.01 (≈ 0.0127 µM)	0.1 (≈ 0.127 µM)	0.1 (≈ 0.127 µM)	25 (≈ 31.7 µM)	0.2 (≈ 0.254 µM)	0.2 (≈ 0.254 µM)	12.5 (≈ 15.9 µM)	0.2 (≈ 0.254 µM)	> 100	0.2 (≈ 0.254 µM)	> 100	100 (≈ 127 µM)	25 (≈ 31.7 µM)	50 (≈ 63.5 µM)	0.1 (≈ 0.127 µM)	MIC [13]: 0.1 µg/mL (≈ 0.127 µM); MIC [32]: 0.2 µg/mL (≈ 0.254 µM); MIC ([22]; S. pyogenes 930, unit assumed): > 100 µg/mL; MIC [23]: 25 µg/mL (≈ 31.7 µM); MIC [24]: 100 µg/mL (≈ 127 µM); MIC [26]: > 100 µg/mL; MIC [33]: 0.2 µg/mL (≈ 0.254 µM); MIC [27]: 100 µg/mL (≈ 127 µM); MIC [28]: 0.1 µg/mL (≈ 0.127 µM); MIC ([29]; E. coli H560, unit assumed): 100 µg/mL (≈ 127 µM); MIC [30]: 100 µg/mL (≈ 127 µM); MIC [31, 39]: 0.2 µg/mL (≈ 0.254 µM)

Source: US6274715A, “Tricyclic erythromycin derivatives” (priority 1997, dated 2001)
